Data: patent publication US9029413B2, “Treatment of viral infections by modulation of host cell metabolic pathways” (The Trustees of Princeton University, priority 2007, dated 2015)
Entries after “also recorded” stand apart in the source; their conditions may differ. Where two headings read alike, the source gives them in different places.

What was measured:
class III PI(3)K = class III PI(3)K (Homo sapiens, UniProt Q8NEB9); settings: cited from earlier work
[1] = system: human cytomegalovirus (HCMV); format: cell-based
HCV replicon = settings: cited from earlier work
HBV = settings: cited from earlier work
[2] = system: HCMV-infected fibroblasts (MRC-5 cells); experiment: Effect on the metabolome of HCMV-infected fibroblasts (LC-MS/MS); format: cell-based, human; settings: TOFA 20 μg/mL for 48 h
Protocol: Primary fibroblasts (MRC-5 cells) were grown in DMEM (high glucose) containing 7.5% FBS and infected at a multiplicity of 3.0 plaque forming units per cell (control cells were mock infected instead of virally infected). […] Mock-infected cells were then returned to growth medium (+DMSO vehicle) for 48 h. […] Metabolites were extracted into the methanol:water and samples analyzed by LC-MS/MS for a diversity of metabolites as described herein.

HCV RNA replicon = HCV RNA replicon luciferase (LUC) reporter assay in Huh7 ET cells
[3] = system: hepatitis B virus (HBV) ayw strain; experiment: Extracellular HBV DNA from HepG2-2.2.15 cells, real-time quantitative PCR
Protocol: In one aspect, Compounds can be added to HepG2-2.2.15 culture to test whether Compound will reduce the production of secreted HBV from cells utilizing real time quantitative PCR (TaqMan) assay to measure HBV DNA copies. Specifically, confluent cultures of HepG2-2.2.15 cells cultured on 96-well flat-bottomed tissue culture plates and are treated with various concentration of daily doses of Compounds. HBV virion DNA in the culture medium can be assessed 24 hours after the last treatment by quantitative blot hybridization or real time quantitative PCR (TaqMan) assay. […] Lamivudine (3TC) can be used as a positive assay control.
As noted in section 5.4, HepG2-2.2.15 (Sells et al., PNAS 84, 1005-9, 1987) is a stable cell line containing the HBV ayw strain genome. Compounds blocking any step of viral replication and release can be assayed in these cells (Korba & Milman, Antiviral Res. 15:217-28, 1991). […] The medium with the ACC inhibitor is replaced every 24 hours, and media samples are removed after drug treatment for 24, 48, 72 or 96 hours and assayed for the presence of extracellular viral DNA by real-time quantitative PCR. A reduction in the amount extracellular viral DNA or a delay in its accumulation during the treatment period with the ACC inhibitor is indicative of anti-HBV activity. […] Lamivudine (3TC) is used as a positive assay control for inhibition of the production of extracellular HBV DNA (Korba & Gerin, Antivir. Res. 19:55-70, 1992).

West Nile virus (WNV) = experiment: Extracellular viral RNA from WNV-infected Vero cells, real-time quantitative RT-PCR; format: cell-based; settings: TOFA 20 μg/mL
Protocol: (§1) WNV and DV, members of the Flavivirus family of positive-strand RNA viruses, cause severe disease in humans. […] A reduction in the amount extracellular viral RNA or a delay in the accumulation of extracellular viral RNA during the drug treatment period will be indicative of anti-WNV or anti-DV activity. […] TOFA at 20 μg/mL results in ˜10-fold reduction, sometime greater, in accumulation of extracellular viral RNA. The accumulation of extracellular viral RNA is also delay compared to untreated cells.

[4] = system: HCMV, influenza A, HIV-1, HBV or HCV; experiment: Viral replication with a combination of ACC inhibitor and HMG-CoA reductase inhibitor; format: cell-based; settings: in the presence of a therapeutically effective concentration of the active form of lovastatin
[5] = cited from earlier work
Dengue virus (DV) = experiment: Extracellular viral RNA from DV-infected Vero cells, real-time quantitative RT-PCR; format: cell-based; settings: TOFA 20 μg/mL
Protocol: as §1

Huh7 ET cells = experiment: Toxicity in Huh7 ET cultures (neutral red dye uptake); settings: TOFA 10 μg/mL or 30 μg/mL
host cell = experiment: Host cell toxicity of the TOFA and indomethacin combination (neutral red dye assay); settings: combined use of TOFA and indomethacin
Protocol: (§2) A non-limiting example of an assay that can be performed to assess the effect of a combination of an ACC inhibitor plus Cox inhibitor on HCMV replication follows. […] In each assay, various concentrations of TOFA can be combined with various concentrations of indomethacin and assayed for their effect on virus replication. In one preferred embodiment, a physiological concentration of indomethacin is held constant as the dose of TOFA is increased. Control cultures are treated with no drug, indomethacin alone or the various concentrations of TOFA alone. […] The antiviral effect of indomethacin plus each concentration of TOFA is then compared to the activity of indomethacin alone or the various concentrations of TOFA alone.

HCMV = settings: TOFA 10 μg/mL
Protocol: as §2

coxsackie B3 virus = settings: cited from earlier work
[6] = dose 30 μg/mL, MOI 3.0, 72 hours post infection, two independent experiments, each with its own controls
[7] = dose 60 μg/mL, MOI 3.0, 72 hours post infection

Chain of class III PI(3)K (Q8NEB9 whole entry): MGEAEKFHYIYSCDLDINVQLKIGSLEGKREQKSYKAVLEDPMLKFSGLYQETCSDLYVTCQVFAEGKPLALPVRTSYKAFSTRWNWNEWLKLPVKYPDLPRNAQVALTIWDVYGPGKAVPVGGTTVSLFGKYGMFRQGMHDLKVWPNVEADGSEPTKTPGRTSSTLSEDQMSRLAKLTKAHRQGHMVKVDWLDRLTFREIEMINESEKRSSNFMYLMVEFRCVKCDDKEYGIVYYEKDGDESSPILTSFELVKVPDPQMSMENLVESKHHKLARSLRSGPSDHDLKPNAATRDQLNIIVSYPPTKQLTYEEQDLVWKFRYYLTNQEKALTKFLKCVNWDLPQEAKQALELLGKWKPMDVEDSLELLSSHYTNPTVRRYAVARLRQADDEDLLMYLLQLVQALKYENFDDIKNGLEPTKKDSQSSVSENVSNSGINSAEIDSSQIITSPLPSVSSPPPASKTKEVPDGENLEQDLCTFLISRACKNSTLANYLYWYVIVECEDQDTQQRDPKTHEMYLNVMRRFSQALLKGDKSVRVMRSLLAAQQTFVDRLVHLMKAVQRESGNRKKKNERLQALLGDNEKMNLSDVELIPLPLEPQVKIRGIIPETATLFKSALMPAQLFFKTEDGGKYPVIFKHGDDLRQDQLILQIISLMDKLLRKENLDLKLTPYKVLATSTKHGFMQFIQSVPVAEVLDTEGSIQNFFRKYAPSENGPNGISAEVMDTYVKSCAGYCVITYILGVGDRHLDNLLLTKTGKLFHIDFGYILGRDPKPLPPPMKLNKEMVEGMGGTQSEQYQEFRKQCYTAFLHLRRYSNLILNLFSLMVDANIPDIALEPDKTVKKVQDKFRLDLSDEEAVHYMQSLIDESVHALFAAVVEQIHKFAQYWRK
Protocol for host cells: The toxicity of the diverse ACC inhibitors on host cells was determined by visual inspection of cell lawns and neutral red viability assay.

For `Cn1cnc(N)c2ncnc1-2` [3-methyladenine], which “inhibition of class III PI(3)K” value (class III PI(3)K) is on record?
The value was “inhibits class III PI(3)K”.

And the “inhibition of HCMV replication (relative infectious units in medium)” value ([1]; 3-methyladenine 5 mM, multiplicity of 0.01 pfu/cell)?
Its value is “has antiviral activities; also recorded: inhibits the replication of human cytomegalovirus”.

For `O=C(c1c2ccccc2cc2ccccc12)N1CCC(N2CCC[C@@H](C(=O)N3CCOCC3)C2)CC1` [CP-640186], which “toxicity on host cells by neutral red viability assay” value (host cells) is on record?
The value was “indistinguishable from DMSO control”.

What about the “inhibition of HCMV replication” value ([1]; as stated in the text for FIGS. 18 and 19, dose not given) of the same molecule?
The value was “approximately 50 fold”.

And the “Fold inhibition of viral replication” value [1, 6]?
Its value is 89.6 fold.

And the Viral yield [1, 6]?
Its Viral yield is 16000 pfu/mL.

With `CCOC(=O)C1(CCCCCCOc2ccc(Cl)cc2)CO1` (stereo not drawn) [Etomoxir] as the molecule, how does the “reduction of HCMV viral replication” value ([1]; Etomoxir 5 μM, AD169, multiplicity of infection 1.0, harvested 96 hours post infection) read?
Its value is “more than 1 log”.

With `CC[C@H](C)C(=O)O[C@H]1C[C@@H](C)C=C2C=C[C@H](C)[C@H](CC[C@@H]3C[C@@H](O)CC(=O)O3)[C@H]21` [Lovastatin, lovastatin] as the molecule, how does the “inhibition of replication of HCV replicons” value (HCV replicon; Huh-7 cells) read?
The value was “partially inhibit”.

And the “production of infectious HBV particles” value (HBV)?
The value was “does not block production of infectious HBV particles”.

And the “secretion of HBV surface antigen, HBsAg” value (HBV)?
Its value is “inhibits secretion of the HBV surface antigen”.

For `CCCCCCCCCCCCCCOc1ccc(C(=O)O)o1` [TOFA, 5-(tetradecyloxy)-2-furoic acid], which “NADP+ levels in HCMV-infected cells” value [2] is on record?
Its value is “falling with TOFA treatment”.

What about the “citrate concentration in HCMV-infected cells” value [2] of the same molecule?
The value was “yet greater increases in citrate concentration”.

And the “malonyl-CoA concentration in HCMV-infected cells” value [2]?
Its value is “below the limit of detection; also recorded: blocked”.

And the “reduction in LUC activity” value (HCV RNA replicon; TOFA 10 μg/mL)?
The value was roughly 10 fold.

What about the “reduction in LUC activity” value (HCV RNA replicon; TOFA 30 μg/mL, in some experiments) of the same molecule?
Its value is no less than 100 fold.

What about the “reduction in extracellular HBV DNA” value ([3]; TOFA 3 μg/mL) of the same molecule?
The value was “small but statistically significant reduction”.

And the “reduction in production of extracellular HBV DNA” value ([3]; TOFA 10 μg/mL (range ~3 to ~30-fold))?
Its value is roughly 10 fold.

What about the “impairment of production of extracellular HBV DNA” value ([3]; TOFA 30 μg/mL, greater than 100-fold in some cases) of the same molecule?
Its value is “greater than 10 fold”.

And the “inhibition of HCV replication” value (HCV replicon; TOFA 5 microg/ml, Huh-7 cells containing an HCV replicon)?
The value was “about 3 fold”.

What about the “reduction in accumulation of extracellular viral RNA (WNV)” value (West Nile virus (WNV)) of the same molecule?
Its value is roughly 10 fold.

And the “reduction of the TOFA concentration required to reduce viral growth and/or replication by 10-fold” value [4]?
Its value is no less than 2 fold.

What about the adverse effects ([5]; rat, in vivo, 100 mg/kg/day) of the same molecule?
The adverse effects was “no adverse effects are observed”.

And the teratogenicity ([5]; rat, in vivo, 150 mg/kg/day)?
The teratogenicity was “not teratogenic”.

And the “oral LD50” value ([5]; rats, oral)?
Its value is “greater than 5,000 mg/kg”.

What about the “decrease in HCMV viral replication” value [1] of the same molecule?
The value was “roughly one”.

What about the “decrease in HCMV viral replication” value ([1]; TOFA 20 μg/mL, MOI 3.0, GFP reporter virus, released virus only, 72 hours post infection) of the same molecule?
Its value is “roughly two”.

What about the “Fold inhibition of viral replication” value [1, 6] of the same molecule?
Its value is 427.6 fold.

And the Viral yield [1, 6]?
Its Viral yield is 7700 pfu/mL.

What about the “Fold inhibition of viral replication” value [1, 7] of the same molecule?
The value was 82499.0 fold.

What about the Viral yield [1, 7] of the same molecule?
The Viral yield was 40 pfu/mL.

What about the “reduction in accumulation of extracellular viral RNA (DV)” value (Dengue virus (DV)) of the same molecule?
The value was roughly 10 fold.

What about the “host cell toxicity by neutral red dye” value (Huh7 ET cells) of the same molecule?
The value was “absence of host cell toxicity”.

What about the “host cell toxicity by neutral red dye assay” value (host cell) of the same molecule?
The value was “does not increase host cell toxicity”.

And the “magnitude of the therapeutic effect on HCMV replication” value (HCMV; absence of indomethacin)?
The value was roughly 10 fold.

And the “magnitude of the therapeutic effect on HCMV replication” value (HCMV; presence of indomethacin)?
The value was roughly 100 fold.

What about the “sensitivity of coxsackie B3 virus” value (coxsackie B3 virus) of the same molecule?
Its value is “insensitive”.
